In patent publication US20220348595A1, “COMPOUNDS AND METHODS FOR THE TARGETED DEGRADATION OF ESTROGEN RECEPTORS” (Endotarget Inc., priority 2021, published 2022):
Like-named read-outs stand apart in the source and are kept apart here.

Key:
Type in all cases: cell-based
[1] = tested on: MCF-7 breast cancer cells; assay: MCF-7 proliferation / cell viability assay; conditions: MCF-7 proliferation with 0.1 nM 17-beta estradiol, read-out: IC50 (anti-proliferation)
Method in brief: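 Survival ratio, with vehicle (DMSO) as 100%, was derived from Coulter-counted viable cell numbers. Cells were grown in 5% FBS DMEM and dosed for 5 days across six concentrations between 10^−10 M and 10^−5 M.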

ER = target: T1, ER (Homo sapiens, UniProt P03372); assay: ER antagonism (T47D ERE luciferase), T47d-kb-Luc cells; conditions: read-out: IC50 (ER antagonistm)
T1 construct: endogenous in cells; host or cells: T47d-kb-Luc (T47D stably transfected with a luciferase reporter gene only)
T1 sequence (P03372 1-595): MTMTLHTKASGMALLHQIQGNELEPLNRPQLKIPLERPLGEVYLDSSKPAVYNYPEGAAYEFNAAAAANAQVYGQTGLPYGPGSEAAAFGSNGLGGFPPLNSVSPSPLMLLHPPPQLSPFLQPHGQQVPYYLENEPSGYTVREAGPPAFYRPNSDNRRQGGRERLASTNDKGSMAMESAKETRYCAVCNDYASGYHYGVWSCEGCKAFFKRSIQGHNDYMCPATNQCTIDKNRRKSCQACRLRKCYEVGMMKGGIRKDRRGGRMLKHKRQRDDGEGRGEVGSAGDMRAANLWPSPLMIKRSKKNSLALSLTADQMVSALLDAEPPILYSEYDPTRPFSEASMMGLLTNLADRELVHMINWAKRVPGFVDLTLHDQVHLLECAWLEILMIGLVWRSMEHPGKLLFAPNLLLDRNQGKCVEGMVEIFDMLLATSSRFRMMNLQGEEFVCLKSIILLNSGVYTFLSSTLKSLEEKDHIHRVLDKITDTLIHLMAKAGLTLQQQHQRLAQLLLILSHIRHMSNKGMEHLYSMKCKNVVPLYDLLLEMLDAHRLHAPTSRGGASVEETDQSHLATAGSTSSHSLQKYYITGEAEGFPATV
Method in brief: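 Five sample concentrations, each in quadruplicate and repeated in at least three experiments, were tested for blocking of estradiol activity. Values were expressed relative to the estradiol control. The cell system was the T47d-kb-Luc stable breast cancer line.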

ERα = target: T2, ERα (Homo sapiens, UniProt P03372); assay: ER degradation in MCF-7 cells (Western blot); conditions: for DC50: ER degradation, 24 hours
T2 construct: endogenous in cells; host or cells: MCF-7
T2 sequence (P03372 1-595): T1 sequence (P03372 1-595)
Method in brief: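 ERα levels assessed by Western blot (50 μg lysate protein, infrared scanner) after 24-hour exposure of MCF-7 cells to varied compound concentrations. Values reported as DC50, the concentration halving ER expression, and Dmax, the maximal ER reduction achieved across tested concentrations.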

[2] = MCF7, Maximal ER degradation, read-out: Dmax

Row | IC50 ([1]; Homo sapiens, MCF7) [µM] | IC50 (ER) [µM] | DC50 (ERα) [µM] | Dmax (ERα; [2]) [%] | SMILES | IC50 [1] [µM] | Dmax (ERα; Maximal ER degradation)
1 | < 0.01 | < 0.01 | < 0.01 | > 90 | CC/C(=C(/c1ccc(O)cc1)c1ccc(OCCN2CCN(C(=O)N3CCN(c4ccc5c(c4)CN([C@@H]4CCC(=O)NC4=O)C5=O)CC3)CC2)cc1)c1ccccc1 [Compound 82] | – | –
2 | < 0.01 | < 0.01 | < 0.01 | > 90 | CC/C(=C(/c1ccc(OCCN2CCN(C(=O)N3CCN(c4ccc5c(c4)CN(C4CCC(=O)NC4=O)C5=O)CC3)CC2)cc1)c1ccc(B(O)O)cc1)c1ccccc1 (centres unmarked) [Compound 83, (Z)-(4-(1-(4-(2-(4-(4-(2-(2,6-dioxopiperidin-3-yl)-1-oxoisoindolin-5-yl)piperazine-1-carbonyl)piperazin-1-yl)ethoxy)phenyl)-2-phenylbut-1-en-1-yl)phenyl)boronic acid] | – | –
3 | < 0.01 | < 0.01 | < 0.01 | > 90 | CC/C(=C(/c1ccc(OCCN2CCN(C(=O)N3CCN(c4ccc5c(c4)CN([C@H]4CCC(=O)NC4=O)C5=O)CC3)CC2)cc1)c1ccc(B(O)O)cc1)c1ccccc1 [Compound 84] | – | –
4 | < 0.01 | < 0.01 | < 0.01 | > 90 | CC/C(=C(\c1ccc(OCCN2CCN(C(=O)N3CCN(c4ccc5c(c4)CN([C@H]4CCC(=O)NC4=O)C5=O)CC3)CC2)cc1)c1ccc(B(O)O)cc1)c1ccccc1 [Compound 87, (S,E)-(4-(1-(4-(2-(4-(4-(2-(2,6-dioxopiperidin-3-yl)-1-oxoisoindolin-5-yl)piperazine-1-carbonyl)piperazin-1-yl)ethoxy)phenyl)-2-phenylbut-1-en-1-yl)phenyl)boronic acid] | – | –
5 | < 0.01 | < 0.01 | < 0.01 | > 90 | CC/C(=C(\c1ccc(OCCN2CCN(C(=O)N3CCN(c4ccc5c(c4)CN([C@@H]4CCC(=O)NC4=O)C5=O)CC3)CC2)cc1)c1ccc(B(O)O)cc1)c1ccccc1 [Compound 88] | – | –
6 | < 0.01 | < 0.01 | < 0.01 | > 90 | CC/C(=C(\c1ccc(OCCN2CCN(C(=O)N3CCC(CN4CCN(c5ccc6c(c5)CN(C5CCC(=O)NC5=O)C6=O)CC4)CC3)CC2)cc1)c1ccc(B(O)O)cc1)c1ccccc1 (centres unmarked) [Compound 92, (E)-(4-(1-(4-(2-(4-(4-((4-(2-(2,6-dioxopiperidin-3-yl)-1-oxoisoindolin-5-yl)piperazin-1-yl)methyl)piperidine-1-carbonyl)piperazin-1-yl)ethoxy)phenyl)-2-phenylbut-1-en-1-yl)phenyl)boronic acid] | – | –
7 | < 0.01 | < 0.01 | 0.01 to 0.05 | > 90 | CC/C(=C(/c1ccc(O)cc1)c1ccc(OCCN2CCN(C(=O)N3CCC(N4CCN(c5ccc6c(c5)CN(C5CCC(=O)NC5=O)C6=O)CC4)CC3)CC2)cc1)c1ccccc1 (centres unmarked) [Compound 94, (E)-3-(5-(4-(1-(4-(2-(4-(1-(4-hydroxyphenyl)-2-phenylbut-1-en-1-yl)phenoxy)ethyl)piperazine-1-carbonyl)piperidin-4-yl)piperazin-1-yl)-1-oxoisoindolin-2-yl)piperidine-2,6-dione] | – | –
8 | < 0.01 | < 0.01 | 0.01 to 0.05 | > 90 | CC/C(=C(/c1ccc(OCCN2CCN(C(=O)N3CCC(N4CCN(c5ccc6c(c5)CN(C5CCC(=O)NC5=O)C6=O)CC4)CC3)CC2)cc1)c1ccc(B(O)O)cc1)c1ccccc1 (centres unmarked) [Compound 95] | – | –

Continued, compound first:

Row | SMILES | IC50 ([1]; Homo sapiens, MCF7) [µM] | IC50 (ER) [µM] | DC50 (ERα) [µM] | Dmax (ERα; [2]) [%] | IC50 [1] [µM] | Dmax (ERα; Maximal ER degradation)
9 | CC/C(=C(/c1ccc(O)cc1)c1ccc(OCCN2CCN(C(=O)N3CCN(c4ccc5c(c4)CN(C4CCC(=O)NC4=O)C5=O)CC3)CC2)cc1)c1ccccc1 (centres unmarked) [Compound 80, (E)-3-(5-(4-(4-(2-(4-(1-(4-hydroxyphenyl)-2-phenylbut-1-en-1-yl)phenoxy)ethyl)piperazine-1-carbonyl)piperazin-1-yl)-1-oxoisoindolin-2-yl)piperidine-2,6-dione] | < 0.01 | < 0.01 | < 0.01 | > 90 | – | –
10 | CC/C(=C(/c1ccc(O)cc1)c1ccc(OCCN2CCN(C(=O)N3CCN(c4ccc5c(c4)CN([C@H]4CCC(=O)NC4=O)C5=O)CC3)CC2)cc1)c1ccccc1 [Compound 81, (S,E)-3-(5-(4-(4-(2-(4-(1-(4-hydroxyphenyl)-2-phenylbut-1-en-1-yl)phenoxy)ethyl)piperazine-1-carbonyl)piperazin-1-yl)-1-oxoisoindolin-2-yl)piperidine-2,6-dione] | < 0.01 | < 0.01 | < 0.01 | > 90 | – | –
11 | CC/C(=C(/c1ccc(OCCN2CCN(C(=O)N3CCN(c4ccc5c(c4)CN([C@@H]4CCC(=O)NC4=O)C5=O)CC3)CC2)cc1)c1ccc(B(O)O)cc1)c1ccccc1 [Compound 85, (R,Z)-(4-(1-(4-(2-(4-(4-(2-(2,6-dioxopiperidin-3-yl)-1-oxoisoindolin-5-yl)piperazine-1-carbonyl)piperazin-1-yl)ethoxy)phenyl)-2-phenylbut-1-en-1-yl)phenyl)boronic acid] | < 0.01 | < 0.01 | < 0.01 | > 90 | – | –
12 | CC/C(=C(\c1ccc(OCCN2CCN(C(=O)N3CCN(c4ccc5c(c4)CN(C4CCC(=O)NC4=O)C5=O)CC3)CC2)cc1)c1ccc(B(O)O)cc1)c1ccccc1 (centres unmarked) [Compound 86, (E)-(4-(1-(4-(2-(4-(4-(2-(2,6-dioxopiperidin-3-yl)-1-oxoisoindolin-5-yl)piperazine-1-carbonyl)piperazin-1-yl)ethoxy)phenyl)-2-phenylbut-1-en-1-yl)phenyl)boronic acid] | < 0.01 | < 0.01 | < 0.01 | > 90 | – | –
13 | CC/C(=C(\c1ccc(O)cc1)c1ccc(OCCN2CCN(C(=O)N3CCC(CN4CCN(c5ccc6c(c5)CN(C5CCC(=O)NC5=O)C6=O)CC4)CC3)CC2)cc1)c1ccccc1 (centres unmarked) [Compound 89] | – | < 0.01 | < 0.01 | – | < 0.01 | A (A -> 90%)
14 | CC/C(=C(/c1ccc(O)cc1)c1ccc(OCCN2CCN(C(=O)N3CCC(CN4CCN(c5ccc6c(c5)CN(C5CCC(=O)NC5=O)C6=O)CC4)CC3)CC2)cc1)c1ccccc1 (centres unmarked) [Compound 90, (E)-3-(5-(4-((1-(4-(2-(4-(1-(4-hydroxyphenyl)-2-phenylbut-1-en-1-yl)phenoxy)ethyl)piperazine-1-carbonyl)piperidin-4-yl)methyl)piperazin-1-yl)-1-oxoisoindolin-2-yl)piperidine-2,6-dione] | < 0.01 | < 0.01 | < 0.01 | > 90 | – | –
15 | CC/C(=C(/c1ccc(OCCN2CCN(C(=O)N3CCC(CN4CCN(c5ccc6c(c5)CN(C5CCC(=O)NC5=O)C6=O)CC4)CC3)CC2)cc1)c1ccc(B(O)O)cc1)c1ccccc1 (centres unmarked) [Compound 91, (Z)-(4-(1-(4-(2-(4-(4-((4-(2-(2,6-dioxopiperidin-3-yl)-1-oxoisoindolin-5-yl)piperazin-1-yl)methyl)piperidine-1-carbonyl)piperazin-1-yl)ethoxy)phenyl)-2-phenylbut-1-en-1-yl)phenyl)boronic acid] | < 0.01 | < 0.01 | < 0.01 | > 90 | – | –
16 | CC/C(=C(\c1ccc(O)cc1)c1ccc(OCCN2CCN(C(=O)N3CCC(N4CCN(c5ccc6c(c5)CN(C5CCC(=O)NC5=O)C6=O)CC4)CC3)CC2)cc1)c1ccccc1 (centres unmarked) [Compound 93, (Z)-3-(5-(4-(1-(4-(2-(4-(1-(4-hydroxyphenyl)-2-phenylbut-1-en-1-yl)phenoxy)ethyl)piperazine-1-carbonyl)piperidin-4-yl)piperazin-1-yl)-1-oxoisoindolin-2-yl)piperidine-2,6-dione] | < 0.01 | < 0.01 | 0.01 to 0.05 | > 90 | – | –
17 | CC/C(=C(\c1ccc(OCCN2CCN(C(=O)N3CCC(N4CCN(c5ccc6c(c5)CN(C5CCC(=O)NC5=O)C6=O)CC4)CC3)CC2)cc1)c1ccc(B(O)O)cc1)c1ccccc1 (centres unmarked) [Compound 96, (E)-(4-(1-(4-(2-(4-(4-(4-(2-(2,6-dioxopiperidin-3-yl)-1-oxoisoindolin-5-yl)piperazin-1-yl)piperidine-1-carbonyl)piperazin-1-yl)ethoxyl)phenyl)-2-phenylbut-1-en-1-yl)phenyl)boronic acid] | < 0.01 | < 0.01 | 0.01 to 0.05 | > 90 | – | –
